Test results published in patent US8952017B2 (Emisphere Technologies, Inc., priority 2004, dated 2015).

Columns and labels:
[1] = Solid oral delivery of acyclovir in rats (plasma acyclovir by LC-MS-MS); assay type: in vivo, Male Sprague Dawley rats; details: oral tablet, acyclovir 25 mg/kg, no delivery agent
Excerpt: An oral dosing tube was used.
Results from the animals in each group were averaged for each time point.

[2] = orally administered; cited from earlier work

Question: For `Nc1nc2c(ncn2COCCO)c(=O)[nH]1` [Acyclovir, 9-(2-hydroxyethoxymethyl)guanine], which “Mean plasma peak of Acyclovir (ng/ml) ± SD” value [1] is on record?
Answer: Its value is 95.11 ± 73.75 ng/mL.

Question: And the bioavailability [2]?
Answer: The bioavailability was 15-30%.
